Assay results reported in patent US9849190B2, “Peptide having cancer selective translocation function and use thereof” (SNU R&DB FOUNDATION, priority 2012, dated 2017).

Legend:
VEGF = assay: Slot-blot analysis of binding to VEGF; details: FIG. 2
Source text: (§1) This is believed to be because the tumor-penetrating ability of the VPTD peptide of the present invention was maximized in the tumor tissue and the VPTD peptide did bind specifically to VEGF to inhibit vascular formation essential for the formation and progression of tumors. […] As a result, it could be seen that the VPTD peptide and the HPTD peptide did all bind to VEGF and heparin, which are overexpressed in tumor cells or tumor tissue.

[1] = Slot-blot analysis of binding to heparin; details: FIG. 2
Source text: as §1

[2] = test system: tumor cell line (MDA-MB-231, ATCC); assay: Tumor cell penetration of fluorescent-labelled peptides (FACS, confocal microscopy); assay type: cell-based; details: for fluorescence of the tumor cells measured by FACS: MDA-MB-231, 60 minutes after inoculation, various peptide concentrations, FIG. 1A; for ability to penetrate the tumor cell line, confocal laser scanning microscope: MDA-MB-231, various peptide concentrations, FIG. 1B
Method: In order to test the tumor cell-targeting and tumor cell-penetrating abilities of the VPTD peptide of SEQ ID NO: 1 and the HPTD peptide of […], prepared in Example 1, the termini of the prepared peptides were labeled with a fluorescent dye, and then each of the peptides was inoculated into a tumor cell line (MDA-MB-231, ATCC) at various concentrations.
60 minutes after the inoculation, the fluorescence of the cells was measured by FACS, and the results of the measurement are shown in FIGS. 1A and 1B.

tumor induced in mice = assay: Tumor inhibitory effect in tumor-induced mice; assay type: in vivo; details: injected, volume measured every 3-4 days for 30 days, versus control, FIG. 3
Method: In order to test the effects of the VPTD peptide of SEQ ID NO: 1 (VSRRRRRRGGRRRR) and the HPTD peptide of SEQ ID NO: (CSSRKKNPNCRRH), prepared in Example 1, and the tumor-targeting and tumor-penetrating peptide-drug conjugates prepared in Example 2, a tumor was induced in mice, and when the tumor grew to a predetermined size, each of the peptides prepared in Example 1 and the tumor-targeting and tumor-penetrating peptide-drug conjugates prepared in Example 2 was injected into the mice. After injection, the volume of the tumor was measured at intervals of 3-4 days for 30 days. On day 30, the mice were sacrificed, and the tumor was extracted and photographed.
as §1

Row | Sequence | binding to VEGF (VEGF) | binding to heparin [1] | fluorescence of the tumor cells measured by FACS [2] | ability to penetrate the tumor cell line, confocal laser scanning microscope [2] | progression of the tumor (tumor volume) (tumor induced in mice)
1 | CSSRKKNPNCRRH (HPTD) [HPTD peptide] | did all bind | did all bind | increased in a manner dependent on the concentration of the peptide | increased in a manner dependent on the concentration of the peptide | –
2 | VSRRRRRRGGRRRR (VPTD) [VPTD peptide] | did all bind | did all bind | increased in a manner dependent on the concentration of the peptide | increased in a manner dependent on the concentration of the peptide | significantly inhibited
